Among the data in PubChem BioAssay AID1699 (The Scripps Research Institute Molecular Screening Center, 2009) are IC50 values, retold here.

For this test, the system named is parental Ba/F3 viability, CellTiter-Glo ATP luminescence. The experiment in a line: parental Ba/F3 viability inhibition, dose response, counter-screen for JAK2V617F inhibitor project, cell-based, luminescence (AID 1699).

The source made the active and inactive calls.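 The calls were made as follows: active = IC50 on parental Ba/F3 cells at or below 10 µM; inactive = IC50 above 10 µM.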

With `CC(C)(C)OC(=O)N[C@@H](Cc1ccccc1)c1nnc(S(=O)(=O)Cc2cccc(F)c2)o1`, the IC50 – broadly, the concentration needed to halve the response being measured – is 3.74 µM.
The result for `COc1cccc(/C=N/NC(=O)c2[nH]c(C)c(C(=O)N/N=C/c3cccc(OC)c3O)c2C)c1O` reads 6.66 µM; that for `COC(=O)COc1cccc2c(=O)n(CC(=O)NCc3ccc(F)cc3)ccc12`, 3.34 µM.
Take `CCOc1ccc(C(=O)C(CN2CCOCC2)c2ccccc2)cc1` (configuration not stated): the IC50 is 2.4 µM.
The value for `Cc1cccc(NC(=O)c2ccc([N+](=O)[O-])o2)c1` was 6.88 µM; that for `Cc1nn2c(NCc3ccccn3)c3c(nc2c1-c1ccccc1)CCC3` was 4.28 µM.
As for `O=C(/C=C/c1ccc(O)c(O)c1)c1ccc(S(=O)(=O)N2CCCCCC2)cc1`, the IC50 was 7.51 µM.
The result for `O=c1cnn([C@@H]2O[C@H](CO)[C@@H](O)[C@H]2O)c(=O)[nH]1` reads 6.8 µM; that for `COc1ccc(N2CCc3c(C)nc4c(OC)cc(OC)cc4c32)c(OC)c1`, 8.32 µM.
The value for `O=C(CSc1nnnn1-c1ccc(F)cc1)c1ccc(O)c(O)c1` was 11.1 µM (inactive).
The result for `Cc1ccccc1CS(=O)(=O)c1nnc([C@H](Cc2ccccc2)NC(=O)OC(C)(C)C)o1` reads 5.33 µM; that for `Cc1cccc(Nc2nc(N)nc(CCl)n2)c1C`, 2.07 µM.
Regarding `O=C1/C(=C/c2ccc(O)c(O)c2)SC(=S)N1Nc1ccccc1`, the IC50 was 11 µM (inactive).
The value for `CC1CCCN(CCCNC(=O)c2cc3c(Cl)nc4ccccc4c3s2)C1` (configuration not stated) was 3.5 µM.
The value for `COc1ccc([N+](=O)[O-])c(S(=O)(=O)c2ccc(Cl)cc2)n1` was 3.26 µM; that for `O=C(O)c1[nH]c(=O)[nH]c(=O)c1F` was 6.87 µM.
Take `CCOc1ccc(Nc2nc(N)nc(CCl)n2)cc1`: the IC50 was 1.92 µM.
The value for `[O-][N+]1=c2ccc(Nc3ccccc3)cc2=NC12CCCCC2` was 5.2 µM; that for `COc1cc(/C=C2\COC/C(=C\c3ccc(O)c(OC)c3)C2=O)ccc1O` was 3.62 µM.
As for `Cc1ccc(C)c(Sc2ccc(NC(=O)CCl)cc2)c1`, the IC50 was 7.25 µM.
The result for `O=C(CCl)NCc1cc(-c2ccc(Cl)cc2)no1` reads 8.35 µM.
Consider `COc1cccc(N(C(=O)CCl)C(C(=O)NCCc2ccccc2)c2cccs2)c1` (configuration not stated), for which the IC50 is 1.34 µM.
The result for `COc1ccc(-c2cc(-c3cc(C)ccc3O)[nH]n2)cc1` reads 8.76 µM; that for `O=C(/C(=N/N=C/c1ccc(O)c(O)c1)c1ccccc1)c1ccccc1`, 1.67 µM.
The value for `CCCCn1c(=N)n(CC(=O)c2ccc(Br)s2)c2ccccc21` was 4.37 µM.
Turning to `Cc1[nH]c2ccccc2c(=O)c1C(=O)/C=C/c1ccccc1`, the IC50 is 3.12 µM.
The result for `O=C(CCl)N=c1sccn1Cc1ccccc1Cl` reads 1.11 µM; that for `Nc1nc(N)c2nc(-c3ccccc3)c(N)nc2n1`, 4.61 µM.
As to `Cc1ccc2nc(C)cc(Nc3ccc([N+](=O)[O-])cc3)c2c1`, the half-maximal inhibitory concentration (IC50) is 3.31 µM.
For `COc1cccc(F)c1C(C[N+](=O)[O-])c1c(N)n(C)c(=O)n(C)c1=O` (configuration not stated), the IC50 is 4.22 µM.
Turning to `Cc1oc2c(O)c(O)ccc2c(=O)c1-c1cnn(-c2ccccc2)c1`, the IC50 is 2.97 µM.
The value for `CCCC(=O)N(C1CC(C)C(C#N)(C#N)C1(C#N)C#N)N(C)C` (configuration not stated) was 4.77 µM.
